Data as given in patent US20120029187A1, “HALOALKYLSULFONANILIDE DERIVATIVE” (Nissan Chemical Industries, Ltd., priority 2009, published 2012).

Assays:
Format in all cases: in vivo
barnyardgrass [1] = test: Test Example 1: herbicidal effects in preemergence treatment under submerged conditions; settings: dose 2.52 g/a
How it was run: (§1)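 Submerged conditions, 4 cm water over alluvial soil. Weeds sown and 2.5-leaf rice transplanted; compound applied preemergence to water surface, doses in g per are. Greenhouse, 25 to 30° C., three weeks, then 0–5 mortality rating.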

bulrush [2] = test: as above; settings: dose 2.52 g/a
How it was run: as §1

ducksalad [3] = test: as above; settings: dose 2.52 g/a
How it was run: as §1

transplanted rice = test: Test Example 1: preemergence treatment under submerged conditions, effect on crop; settings: dose 2.52 g/a
How it was run: as §1

barnyardgrass [4] = test: Test Example 2: herbicidal effects during the vegetation period under submerged conditions; settings: treatment during the vegetation period under submerged conditions; dose 2.52 g/a
How it was run: (§2)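 Barnyardgrass, bulrush and ducksalad were co-sown in alluvial soil flooded to 4 cm and grown in a greenhouse at 25 to 30° C. At the 1- or 2-leaf stage, water-diluted emulsifiable concentrates went onto the water surface at set doses (g/a). Herbicidal effect was scored three weeks later on a graded scale.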

bulrush [5] = test: as above; settings: treatment during the vegetation period under submerged conditions; dose 2.52 g/a
How it was run: as §2

ducksalad [6] = test: as above; settings: treatment during the vegetation period under submerged conditions; dose 2.52 g/a
How it was run: as §2

Italian ryegrass [7] = test: Test Example 3: herbicidal effects in soil treatment; settings: dose 3.2 g/a
How it was run: (§3)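 Seeds were sown in sterilized diluvial soil and covered with about 1.5 cm of soil. Compounds, formulated as emulsifiable concentrates and diluted with water, were sprayed evenly over the soil surface at set doses in g/a. Herbicidal effect was scored on a rating scale three weeks later.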

barnyardgrass [8] = test: as above; settings: dose 3.2 g/a
How it was run: as §3

common chickweed [9] = test: as above; settings: dose 3.2 g/a
How it was run: as §3

common lambsquater [10] = test: as above; settings: dose 3.2 g/a
How it was run: as §3

common ragweed [11] = test: as above; settings: dose 3.2 g/a
How it was run: as §3

giant foxtail [12] = test: as above; settings: dose 3.2 g/a
How it was run: as §3

large crabgrass [13] = test: as above; settings: dose 3.2 g/a
How it was run: as §3

posumbu knotweed [14] = test: as above; settings: dose 3.2 g/a
How it was run: as §3

redroot pigweed [15] = test: as above; settings: dose 3.2 g/a
How it was run: as §3

velvetleaf [16] = test: as above; settings: dose 3.2 g/a
How it was run: as §3

water foxtail [17] = test: as above; settings: dose 3.2 g/a
How it was run: as §3

Italian ryegrass [18] = test: Test Example 4: herbicidal effect in foliage treatment; settings: dose 3.2 g/a, three weeks after application
How it was run: (§4)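 Herbicidal effect was rated on an evaluation scale three weeks after treatment. Plants had been raised 14 days at 25 to 30° C in sterilized diluvial soil, then received foliar sprays of emulsifiable concentrate diluted in water at predetermined doses expressed as g per are.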

barnyardgrass [19] = test: as above; settings: dose 3.2 g/a, three weeks after application
How it was run: as §4

beadstraw = test: as above; settings: dose 3.2 g/a, three weeks after application
How it was run: as §4

common chickweed [20] = test: as above; settings: dose 3.2 g/a, three weeks after application
How it was run: as §4

common lambsquater [21] = test: as above; settings: dose 3.2 g/a, three weeks after application
How it was run: as §4

common ragweed [22] = test: as above; settings: dose 3.2 g/a, three weeks after application
How it was run: as §4

giant foxtail [23] = test: as above; settings: dose 3.2 g/a, three weeks after application
How it was run: as §4

large crabgrass [24] = test: as above; settings: dose 3.2 g/a, three weeks after application
How it was run: as §4

posumbu knotweed [25] = test: as above; settings: dose 3.2 g/a, three weeks after application
How it was run: as §4

redroot pigweed [26] = test: as above; settings: dose 3.2 g/a, three weeks after application
How it was run: as §4

velvetleaf [27] = test: as above; settings: dose 3.2 g/a, three weeks after application
How it was run: as §4

water foxtail [28] = test: as above; settings: dose 3.2 g/a, three weeks after application
How it was run: as §4

Row | SMILES | A: barnyardgrass, herbicidal effect (evaluation scale 0-5) (barnyardgrass [1]) | B: bulrush, herbicidal effect (evaluation scale 0-5) (bulrush [2]) | C: ducksalad, herbicidal effect (evaluation scale 0-5) (ducksalad [3]) | a: transplanted rice, effect on crop (evaluation scale 0-5) (transplanted rice) | A: barnyardgrass, herbicidal effect (evaluation scale 0-5) (barnyardgrass [4]) | B: bulrush, herbicidal effect (evaluation scale 0-5) (bulrush [5]) | C: ducksalad, herbicidal effect (evaluation scale 0-5) (ducksalad [6]) | H: Italian ryegrass, herbicidal effect (evaluation scale 0-5) (Italian ryegrass [7]) | A: barnyardgrass, herbicidal effect (evaluation scale 0-5) (barnyardgrass [8]) | N: common chickweed, herbicidal effect (evaluation scale 0-5) (common chickweed [9]) | L: common lambsquater, herbicidal effect (evaluation scale 0-5) (common lambsquater [10]) | J: common ragweed, herbicidal effect (evaluation scale 0-5) (common ragweed [11]) | E: giant foxtail, herbicidal effect (evaluation scale 0-5) (giant foxtail [12]) | D: large crabgrass, herbicidal effect (evaluation scale 0-5) (large crabgrass [13]) | M: posumbu knotweed, herbicidal effect (evaluation scale 0-5) (posumbu knotweed [14]) | K: redroot pigweed, herbicidal effect (evaluation scale 0-5) (redroot pigweed [15]) | I: velvetleaf, herbicidal effect (evaluation scale 0-5) (velvetleaf [16]) | G: water foxtail, herbicidal effect (evaluation scale 0-5) (water foxtail [17]) | H: Italian ryegrass, herbicidal effect (Italian ryegrass [18]) | A: barnyardgrass, herbicidal effect (barnyardgrass [19]) | also measured
1 | CCC1(C)CC(=O)N(Cc2ccccc2NS(=O)(=O)C(F)(F)F)CO1 (stereo not drawn) [II-40] | 5 (mortality of 90% or above (nearly complete death)) | 5 (mortality of 90% or above (nearly complete death)) | 5 (mortality of 90% or above (nearly complete death)) | 0 (mortality of less than 5% (almost ineffective)) | 4 (mortality of at least 70% and less than 90%) | 5 (mortality of 90% or above (nearly complete death)) | 5 (mortality of 90% or above (nearly complete death)) | 5 (mortality of 90% or above (nearly complete death)) | 5 (mortality of 90% or above (nearly complete death)) | 5 (mortality of 90% or above (nearly complete death)) | 0 (mortality of less than 5% (almost ineffective)) | 5 (mortality of 90% or above (nearly complete death)) | 5 (mortality of 90% or above (nearly complete death)) | 5 (mortality of 90% or above (nearly complete death)) | 4 (mortality of at least 70% and less than 90%) | 4 (mortality of at least 70% and less than 90%) | 5 (mortality of 90% or above (nearly complete death)) | 5 (mortality of 90% or above (nearly complete death)) | 5 (mortality of 90% or above (nearly complete death)) | 5 (mortality of 90% or above (nearly complete death)) | O: beadstraw, herbicidal effect (beadstraw): 3 (mortality of at least 40% and less than 70%); N: common chickweed, herbicidal effect (common chickweed [20]): 4 (mortality of at least 70% and less than 90%); L: common lambsquater, herbicidal effect (common lambsquater [21]): 4 (mortality of at least 70% and less than 90%); J: common ragweed, herbicidal effect (common ragweed [22]): 4 (mortality of at least 70% and less than 90%); E: giant foxtail, herbicidal effect (giant foxtail [23]): 4 (mortality of at least 70% and less than 90%); D: large crabgrass, herbicidal effect (large crabgrass [24]): 3 (mortality of at least 40% and less than 70%); M: posumbu knotweed, herbicidal effect (posumbu knotweed [25]): 0 (mortality of less than 5% (almost ineffective)); K: redroot pigweed, herbicidal effect (redroot pigweed [26]): 0 (mortality of less than 5% (almost ineffective)); I: velvetleaf, herbicidal effect (velvetleaf [27]): 5 (mortality of 90% or above (nearly complete death)); G: water foxtail, herbicidal effect (water foxtail [28]): 5 (mortality of 90% or above (nearly complete death))
2 | CCC(=O)N(c1ccccc1CN1COC(C)(CC)CC1=O)S(=O)(=O)C(F)(F)F (stereo not drawn) [II-41] | 5 (mortality of 90% or above (nearly complete death)) | 5 (mortality of 90% or above (nearly complete death)) | 5 (mortality of 90% or above (nearly complete death)) | 0 (mortality of less than 5% (almost ineffective)) | 5 (mortality of 90% or above (nearly complete death)) | 5 (mortality of 90% or above (nearly complete death)) | 5 (mortality of 90% or above (nearly complete death)) | 5 (mortality of 90% or above (nearly complete death)) | 5 (mortality of 90% or above (nearly complete death)) | 5 (mortality of 90% or above (nearly complete death)) | 3 (mortality of at least 40% and less than 70%) | 4 (mortality of at least 70% and less than 90%) | 4 (mortality of at least 70% and less than 90%) | 4 (mortality of at least 70% and less than 90%) | 4 (mortality of at least 70% and less than 90%) | 2 (mortality of at least 20% and less than 40%) | 5 (mortality of 90% or above (nearly complete death)) | 5 (mortality of 90% or above (nearly complete death)) | 4 (mortality of at least 70% and less than 90%) | 5 (mortality of 90% or above (nearly complete death)) | O: beadstraw, herbicidal effect (beadstraw): 4 (mortality of at least 70% and less than 90%); N: common chickweed, herbicidal effect (common chickweed [20]): 3 (mortality of at least 40% and less than 70%); L: common lambsquater, herbicidal effect (common lambsquater [21]): 2 (mortality of at least 20% and less than 40%); J: common ragweed, herbicidal effect (common ragweed [22]): 3 (mortality of at least 40% and less than 70%); E: giant foxtail, herbicidal effect (giant foxtail [23]): 4 (mortality of at least 70% and less than 90%); D: large crabgrass, herbicidal effect (large crabgrass [24]): 1 (mortality of at least 5% and less than 20%); M: posumbu knotweed, herbicidal effect (posumbu knotweed [25]): 0 (mortality of less than 5% (almost ineffective)); K: redroot pigweed, herbicidal effect (redroot pigweed [26]): 0 (mortality of less than 5% (almost ineffective)); I: velvetleaf, herbicidal effect (velvetleaf [27]): 5 (mortality of 90% or above (nearly complete death)); G: water foxtail, herbicidal effect (water foxtail [28]): 5 (mortality of 90% or above (nearly complete death))
